{"source": "patent US20240285565A1", "about": "“USE OF (S)-3-AMINO-4-(DIFLUOROMETHYLENYL)CYCLOPENT-1-ENE-1-CARBOXYLIC ACID IN THE TREATMENT OF DIABETES AND PRE-DIABETES” (Ovid Therapeutics Inc., priority 2023, published 2024)", "origin": "cited, not measured here", "key": {"[1]": {"biological_target": "alanine aminotransferase (Ala-AT)"}, "[2]": {"biological_target": "aspartate aminotransferase (Asp-AT)"}, "OAT": {"biological_target": "T1, OAT (Homo sapiens, UniProt P04181)", "T1 sequence (P04181 26-439)": "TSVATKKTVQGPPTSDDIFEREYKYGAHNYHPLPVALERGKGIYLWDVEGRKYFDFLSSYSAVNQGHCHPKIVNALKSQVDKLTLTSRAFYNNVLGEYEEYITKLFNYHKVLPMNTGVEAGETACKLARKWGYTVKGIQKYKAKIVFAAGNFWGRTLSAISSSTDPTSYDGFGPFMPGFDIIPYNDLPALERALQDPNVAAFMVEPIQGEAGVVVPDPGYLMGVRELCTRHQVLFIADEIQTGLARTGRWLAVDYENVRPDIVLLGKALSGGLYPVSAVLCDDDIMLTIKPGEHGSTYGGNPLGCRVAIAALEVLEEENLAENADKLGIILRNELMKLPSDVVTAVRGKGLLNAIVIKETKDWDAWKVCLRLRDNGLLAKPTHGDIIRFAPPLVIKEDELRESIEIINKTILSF"}}}
{"smiles": "N[C@H]1C=C(C(=O)O)CC1=C(F)F", "note": "[(S)-3-amino-4-(difluoromethylenyl)cyclopent-1-ene-1-carboxylic acid]", "values": [{"measurement": "IC50", "setting": "[1]; reversible inhibition", "result": "> 4000", "unit": "µM"}, {"measurement": "IC50", "setting": "[2]; reversible inhibition", "result": "> 4000", "unit": "µM"}, {"measurement": "Kinact/K1 (OAT)", "setting": "OAT", "result": 127, "unit": "M⁻¹ s⁻¹"}, {"measurement": "times more efficient an inactivator of OAT than CPP-115", "setting": "OAT; ratio of Kinact/K1 relative to CPP-115", "result": 9.0, "unit": "times"}]}
{"smiles": "N[C@H]1C[C@@H](C(=O)O)CC1=C(F)F", "note": "[CPP-115, (1S,3S)-3-amino+difluoromethylenyl-1-cyclopentanoic acid, reference compound]", "values": [{"measurement": "inactivation or inhibition of Ala-AT", "setting": "[1]; result in words", "result": "not to inactivate or inhibit"}, {"measurement": "inactivation or inhibition of Asp-AT", "setting": "[2]; result in words", "result": "not to inactivate or inhibit"}, {"measurement": "Ki", "setting": "OAT; read-out: K1 (OAT)", "result": 116, "unit": "µM"}]}
